Measurements taken from patent US11717557B2, “Use of PRG4 as an anti-inflammatory agent” (Lubris LLC, priority 2015, dated 2023).

Tests used:
[1] = test system: NFκB nuclear translocation in RA-FLS; assay: NFκB nuclear translocation after TNF-α stimulation of RA-FLS; format: cell-based; details: TNF-α 5 ng/mL; rhPRG4 200 μg/mL or MG 132 3 μM; 24 hours; p<0.001
Procedure: RA-FLS (400,000 cells/well) were cultured and stimulated with TNF-α (5 ng/mL) and treated with rhPRG4 (200 μg/mL) or a commercially available NFκB translocation inhibitor MG 132 (3 μM; Tocris Bioscience) for 24 hours in serum free media. Cells were harvested and nuclear extraction was performed using a commercially available kit (Thermo scientific). Total protein was measured using a micro bicinchonic acid (BCA) kit (Thermo scientific) and 3 μg of nuclear extract of each experimental group were used. The p50 subunit of NFκB was detected in the nuclear extract using a commercially available NFκB DNA binding assay kit (Abcam). Data is presented as the number of fold change in NFκB nuclear levels compared to untreated control. To evaluate whether inhibition of NFκB translocation by rhPRG4 is CD44 dependent, the above experiment was repeated in the presence or absence of IM7 CD44 antibody (1:1,000 dilution). Data represents the average of 3 independent experiments with at least triplicate wells per treatment.

[2] = test system: normal synovial fluid cells; assay: Cytokines secreted by normal synoviocytes (Luminex); format: cell-based, human; details: rhPRG4 90 μg/mL, 24 hours, lubricin vs. PBS
Procedure: (§1) Synovial fluid cells were obtained from normal and osteoarthritic (OA) patients and purified with CD90+ following an immune cell depletion. The cells were plated at 10,000 per well and suspended in media containing DMEM, heat-inactivated Hyclone FBS (10%), and Anti-Anti (1%). The assays contained the cell suspension (cells+ media) at 180 μL and the ligands at 20 μL for a total volume of 200 μL. Recombinant lubricin (rhPRG4) was then introduced to the cells at a concentration of 90 μg/mL and the negative control was PBS. The plate was then incubated at 37° C. at 5% CO2 for 24 hours, after which the supernatants were collected for cytokine analysis via the Luminex multiplex platform.

[3] = test system: osteoarthritic (OA) synovial fluid cells; assay: Cytokines secreted by osteoarthritic synoviocytes (Luminex); format: cell-based, human; details: rhPRG4 90 μg/mL, 24 hours, versus PBS
Procedure: as §1

[4] = test system: Rheumatoid arthritis fibroblast-like synoviocytes (RA-FLS); assay: Cytokine-induced RA-FLS proliferation (MTS); format: cell-based; details: 48 hours, p<0.05
Procedure: Rheumatoid arthritis fibroblast-like synoviocytes (RA-FLS; Cell Applications, USA) between 3rd and 6th passages were used to conduct these experiments. In sterile 96 well plates, RA-FLS (5,000 cells per well in 80 μL) were cultured in DMEM supplemented with 1% FBS and 1 mM pyruvate and stimulated with recombinant human interleukin-1 beta (IL-1β; R & D systems) at 20 ng/mL or tumor necrosis factor alpha (TNF-α; R & D systems) at 5 ng/mL for 48 hours at 37° C. in the absence or presence of rhPRG4 or HMW HA at a final concentration of 20, 40 or 80 μg/mL. The total volume in each well was 200 μL. Cell proliferation, an indication of inflammation, was determined using the CellTiter 96 AQueous one solution cell proliferation assay (MTS; Promega, USA) and the 490 nm absorbance was determined. Data is presented as the number of fold change in 490 nm absorbance compared to untreated control RA-FLS. The data represents the average of 3 independent experiments with at least triplicate wells per treatment. To evaluate the contribution of CD44 to the effect of rhPRG4 or HMW HA, RA-FLS were stimulated with IL-1β or TNF-α as described above. Treatment with rhPRG4 or HMW HA was conducted to a final concentration of 80 μg/mL in the absence or presence of IM7 (Abcam, USA), a CD44 neutralizing antibody that recognizes a conserved epitope across all CD44 isoforms (Samson et al., Exp Eye Res, 2014; 127C:14-19), at a final dilution of 1:200. The total volume in each well was 200 μl. Cell proliferation across the experimental groups was determined as described above and data is presented as the number of fold change in 490 nm absorbance compared to untreated control RA-FLS. The data represents the average of 3 independent experiments with at least triplicate wells per treatment.

whole blood = assay: Lubricin on TNF-α mediated inflammatory cytokine generation in whole blood; format: cell-based, human
Procedure: The effect of lubricin on TNF-α mediated inflammatory cytokine generation was studied using Biochip Array technology. Recombinant TNF-α was used as a trigger to generate inflammatory cytokines in whole blood. The effect of lubricin was studied on the TNF-α mediated generation of various cytokines. TNF-α alone at a concentration of […] was supplemented to the whole blood which was incubated for 60 minutes at 37° C. TNF-α was supplemented to whole blood in a 1:10 dilution. The modulatory effects of lubricin on TNF-α-mediated generation of various cytokines were studied by supplementing lubricin at 0.57 mg/mL in the whole blood immediately prior to addition of TNF-α. After 60 minutes plasma was obtained from centrifugation and analyzed for inflammatory cytokine using Randox Biochip arrays.

Substance: rhPRG4: full-length recombinant human PRG4 (lubricin) glycoprotein produced by CHO-M cells (Lubris), Mr≅240 KDa
- NFκB nuclear translocation compared to TNF-α-treated RA-FLS [1]: significantly reduced
- cytokine response [2]: did not show any changes
- FGF-2 and IL-1Ra cytokines [3]: down-regulation
- RA-FLS proliferation with IL-1β stimulation ([4]; IL-1β 20 ng/mL, treatment 40 and 80 μg/mL): significantly suppressed
- RA-FLS proliferation with TNF-α stimulation ([4]; TNF-α 5 ng/mL, treatment 20, 40 and 80 μg/mL): significantly suppressed
- IL-6, IL-8, IL-10, VEGF, TNF-α, IL-1β and EGF (whole blood; lubricin 0.57 mg/mL before TNF-α 100 mg/mL, 60 minutes at 37° C., versus TNF-α alone): decrease
- decrease of the levels of cytokines (whole blood; lubricin 0.57 mg/mL, versus TNF-α alone): 10-100%
- TNF-α stimulated IFN-γ and TNF-α (whole blood; lubricin 0.57 mg/mL, versus stimulation in the absence of lubricin): most dramatic decrease
